# In patent US8476037B2, “Method for screening of antiviral agents” (priority 2010, dated 2013):
# Biological target: M2(1-49) channel forming segment of the M2 protein (Influenza A virus, UniProt P0DOF5)
# Assay type: cell-based
# M2(1-49) channel forming segment of the M2 protein, sequence (P0DOF5 1-49 limits assumed): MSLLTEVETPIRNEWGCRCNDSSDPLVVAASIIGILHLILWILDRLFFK
smiles,measurement,setting,value
"Cl.NC12CC3CC(CC(C3)C1)C2 [amantadine, 1-aminoadamantane hydrochloride]",expression of M2(1-49) protein in SPP culture,,the M2(1-49) protein was expressed
same,rescue of expression of M2(1-49),"[…], addition of amantadine",rescued
